Where a SMILES comes first, the peptide text is derived from it.
The compounds below were run on SARS-CoV-2 M^pro precursors Nsp4-4F-M^pro-GST and 4F-M^pro-GST.
Assay type: cell-based

Compound | AlphaLISA signal (precursor-mediated N-terminal processing)
CC(C)C[C@H](NC(=O)[C@H]1O[C@@H]1C(=O)O)C(=O)NCCCCN=C(N)N [E-64] | background levels
CC(NC(=O)[C@H](Cc1ccccc1)NC(=O)OCc1ccccc1)C(=O)CF (stereo partly drawn) [Z-FA-FMK] | no detectable impact
COC(=O)N[C@H](C(=O)N[C@@H](Cc1ccccc1)[C@@H](O)CN(Cc1ccc(-c2ccccn2)cc1)NC(=O)[C@@H](NC(=O)OC)C(C)(C)C)C(C)(C)C [atazanavir] | background levels
CC(C)(C)NC(=O)N[C@H](C(=O)N1C[C@H]2[C@@H]([C@H]1C(=O)NC(CC1CCC1)C(=O)C(N)=O)C2(C)C)C(C)(C)C (stereo partly drawn) [boceprevir, Boceprevir] | no detectable impact
CSCC[C@@H](C=O)NC(=O)[C@H](CC(C)C)NC(=O)[C@H](CC(C)C)NC(C)=O [calpain inhibitor II] (Ac-Leu-Leu-Met-aldehyde) | no detectable impact
Cc1cccc(C)c1OCC(=O)N[C@@H](Cc1ccccc1)[C@@H](O)C[C@H](Cc1ccccc1)NC(=O)[C@H](C(C)C)N1CCCNC1=O [lopinavir] | background levels

— paper PMC11359197 (Viruses, 2024)
